Legend:
Assay type in all cases: cell-based, murine
p38 MAPK = assay: phospho-p38 immunoblot, LPS-stimulated N9 microglia; conditions: N9 cells, LPS 10 μg/mL 10 min, TNL pre-incubation 1 hr
Excerpt: (§1) TNL was a generous gift of Kissei Pharmaceuticals, LPC (Escherichia coli, 0127:BS), phorbol 12-myristate 13-acetate (PMA) and dexamethasone (DEX) were obtained from Sigma, BAY 11-7082 (BAY), NF-κB SN50 inhibitory peptide (SN50), GF 109203X (GFX) and rottlerin (ROT) were purchased from Biomol. PD098059 (PD) was obtained from Calbiochem. Purified murine interferon-γ (IFN-γ) was purchased from Roche Diagnostics. N9 murine microglial cells were a kind gift from P. Ricciardi-Castagnoli (Righi, M. et al. 1989 supra). Cells were cultured in Dulbecco's modified Eagle's medium (DMEM) supplemented with 10% fetal calf serum (FCS), 2 mM glutamine, penicillin (100 unit/mL) and streptomycin (100 μg/mL) and maintained at 37° in an atmosphere of 5% CO2. Viability was assessed by crystal violet staining.
(§2) For the preparation of whole cell lysates, the cells were lysed in 0.1 M Tris-HCl (pH 7.2) containing 0.1% NP40, 0.1 mM EDTA and 5 μg/mL phenylmethylsulphonyl fluoride. Twenty micrograms protein was separated by 10-12% SDS-PAGE and electroblotted on nitrocellulose membrane. Equal loading was controlled by Ponceau S staining. […]

inhibitory-κB (I-κB) = assay: phospho-IκBα immunoblot, LPS-stimulated N9 microglia; conditions: N9 cells, 1 hr, TNL pre-incubation 1 hr
Excerpt: as §1, §2

iNOS mRNA = iNOS mRNA Northern blot, IFN-γ-stimulated N9 microglia; conditions: N9 cells, IFN-γ 200 u ml, 24 h, tranilast 300 μM
Description: Tranilast was a generous gift of Kissei Pharmaceuticals (Nagano, Japan). Murine recombinant IFN-γ was purchased from Boehringer (Mannheim, Germany). Dexamethasone (DEX) was obtained from Sigma (Deisenhofen, Germany). N9 murine microglial cells were a kind gift from P. Ricciardi-Castagnoli (Milano, Italy) (Righi, M., Mori, L., De Libero, G., Sironi, M., Biondi, A., Mantovani, A., Donini, S. D. and Ricciardi-Castagnoli, P. Eur J Immunol 19(8):1443-1448, 1989). The cells were cultured in Dulbecco's modified Eagle's medium (DMEM) supplemented with 10% foetal calf serum (FCS), 2 mM glutamine and penicillin ([…])/streptomycin (100 μg ml), and maintained at 37° C. in an atmosphere of 5% CO2. Viability was assessed by crystal violet staining.
Total RNA was isolated using the RNeasy kit (Qiagen, Hilden, Germany). Total RNA ([…]) was separated on 1.2% agarose gels and blotted onto nylon membranes (Amersham). The filters were hybridized according to standard procedures (Platten, M., Wild-Bode, C., Wick, W., Leitlein, J., Dichgans, J., and Weller, M., Int. J. Cancer, 93:53-61, 2001) with a ^32P-labelled murine cDNA probe for iNOS. For the generation of the iNOS probe, N9 cells were stimulated with IFN-γ ([…]) for 24 h. […]

NF-κB = NF-κB reporter assay, IFN-γ-stimulated N9 microglia; conditions: N9 cells, IFN-γ 200 u ml, tranilast 30-300 μM, 4 h preincubation
Description: N9 murine microglial cells were seeded in a 96-well plate (8×10^3 well) and allowed to adhere for 24 h. The cells were transfected with an NK-κB cis-reporter gene plasmid (PathDetect* no. 219077, Stratagene) which encodes firefly luciferase in a NF-κB-dependent-manner. For each transfection, 0.2 μg DNA and 0.6 μl FuGene (Roche, Mannheim, Germany) were used. The cells were either co-transfected with 0.02 μg of the pFC-Mekk positive control plasmid, included in the NF-κB cis-reporting system from Stratagene, or with the pcDNA-3 plasmid, to maintain a constant amount of total DNA. In order to assess the unspecific background, a control transfection with pcDNA-3 only was included in all experiments. After 24 h the cells were washed twice with PBS (0.12 M NaCl, 0.01 M NaH2PO4×H2O, 0.031 M K2HPO4) and lysed using 40 μl well of Cell Lysis Buffer (mM):tricine pH 7.8 40, NaCl 50, EDTA 2, MgSO4 1, DTT 5, 1% Triton* X-100, all from Sigma. To optimize lysis, a freeze-thaw cycle was performed. Then the lysate was transferred to a LumiNunc™ plate (Nunc, Roskilde, Denmark). Luciferase assay reagent (100 μl) containing (mM): tricine pH 7.8 40, MgSO4 10, EDTA 0.5, DTT 10, coenzyme A 0.5 and beetle luciferin 0.5, ([…]), (all from Sigma) were added and luminescence was measured in a LumimatPlus (EG&G Berthold, Pforzheim, Germany). […]

iNOS = iNOS activity by Griess assay (nitrite formation), LPS-stimulated N9 microglia; conditions: N9 cells, LPS 10 μg/mL, 48 hr, concentration series
Excerpt: as §1
iNOS activity was assessed by the Griess assay (Platten, M., Wick, W., Wischhusen, J. and Weller, M. Br J Pharmacol 134(6):1279-1284, 2001). Briefly, conditioned supernatant was incubated with an equal volume of Griess reagent containing 1% sulphanilamide, 0.1% naphthylethylenediamine dihydrochloride and 2.5% H3PO4 (Green, L. C., Wagner, D. A., Glogowski, J., Skipper, P. I., Wishnok, J. S, and Tannenbaum, S. R. Anal. Biochem., 126:131-138, 1982) for 5 min. at room temperature. The absorbance was measured at 546 nm. NaNO2 diluted in DMEM served as a standard. To control for cell number, the cells were stained with crystal violet. iNOS activity is expressed as nitrite accumulated in 48 hr/10^5 cells.

## COc1ccc(/C=C/C(=O)Nc2ccccc2C(=O)O)cc1OC [tranilast, 2-[[3-(3,4-dimethoxyphenyl)-1-oxo-2-propenyl]amino]benzoic acid]
p38 MAPK
  cellular phospho-p38 levels after LPS: did not alter
inhibitory-κB (I-κB)
  LPS-mediated phosphorylation of I-κB: did not suppress
iNOS mRNA
  IFN-γ-induced iNOS mRNA expression: greatly suppressed
NF-κB
  NF-κB reporter gene activity in response to IFN-γ: concentration-dependent suppression
iNOS
  nitrite formation after LPS: concentration-dependent decrease

— patent US7531575B2, “Method of modulating cellular activity and agents useful for same” (Eberhard-Karls-Universität Tübingin, priority 2002, dated 2009)
